Several values for one entry are separate records, joined by “and”; a condition that tells them apart may be missing. Identical values can stand only once. Entries after “also recorded” stand apart in the source; their conditions may differ.
Experiments:
[1] = system: AT1R desensitization (Ca2+); assay: Ca2+ mobilization in HEK293 cells stably expressing AT1R; assay type: cell-based, human; details: 10 μM, 30 min, ANGII 30 pM
Experimental: Intracellular (Ca^2+) release was measured using the FLIPR Calcium 6 assay kit with a FlexStation 3 microplate reader, following the manufacturer’s instructions (Molecular Devices) and as described previously. In brief, HEK293 cells stably expressing human angiotensin II type 1 receptor (AT1R), parental HEK293 cells transiently expressing AT1R, or HEK293 CRISPR–Cas9 βARR1/2-knockout cells transiently expressing AT1R were seeded in poly-D-lysine-coated, black 96-well assay plates at a density of 40,000 cells per well and incubated for 24 h. On the day of the experiment, cell plates were loaded with FLIPR Calcium 6 reagents and treated with β-arrestin small-molecule modulators (10 μM) or vehicle (DMSO) for 30 min. After establishing basal fluorescence (F0), the cells were treated with the agonist ANGII (30 pM for stably expressing AT1R or 120 pM for transiently expressing AT1R) while fluorescence intensity (F) was monitored in real time. These sub-maximal ANGII concentrations were empirically optimized to elicit moderate, temporally resolved Ca^2+ transients, allowing sufficient time for β-arrestin-mediated desensitization to develop prior to the peak response. The complete Ca^2+ transient profile was quantified by calculating the AUC over time. AUC values were normalized to the response to ANGII alone (set as 100%) to compare the effects of modulators relative to the agonist-alone control.

βARR2 = biological target: T1, βARR2 (Rattus norvegicus, UniProt P29067); assay: ITC binding to βARR2; details: for stoichiometry N, βARR2 / Kd: ITC; for Kd: 25 °C, one-site model; for β-arrestin isoform preference: from ITC
T1 construct: βARR1 or βARR2 construct, with their C terminus truncated (at amino acid 393 or 394, respectively); GST (pGEX4T1) (N, cleaved yes); made in house; host or cells: E. coli BL21 (DE3) pLysS
Experimental: (§1) The expression and purification of β-arrestins have been described previously[44],[62]–[64]. In brief, E. coli BL21 (DE3) pLysS cells (New England Biolabs: C2527I) carrying pGEX4T1-Rattus norvegicus βARR1 or βARR2 construct, with their C terminus truncated (at amino acid 393 or 394, respectively), were cultured in Terrific Broth (Teknova) medium at 37 °C. After OD600 reached 0.6–0.8, the cells were induced with 0.1 mM isopropyl-β-D-thiogalactopyranoside (IPTG) at 18 °C overnight. Bacteria were collected by centrifugation (4,000 rpm), and cell pellets were resuspended in lysis buffer (20 mM HEPES, pH 8, 150 mM NaCl, 10% glycerol, 1 mM EDTA, 0.2 mM dithiothreitol (DTT), 1 mM phenylmethylsulfonyl fluoride, and 1 mM benzamidine) at 4 °C for 1 h. Cell suspensions were sonicated, centrifuged (14,000 rpm, 30 min, 4 °C), and the supernatant was loaded onto pre-equilibrated glutathione–agarose resin (GoldBio). After 3 h of binding at 4 °C, the beads were washed, and thrombin was added for overnight cleavage. The proteins were further purified by anion exchange chromatography followed by size-exclusion chromatography using a Superdex 200 Increase 10/300 GL column on an ÄKTA FPLC system (GE Healthcare). Eluted fractions were analysed by SDS–PAGE, pooled, concentrated using 30 kDa MWCO Amicon Ultra-15 Centrifugal Filter devices, flash-frozen in liquid nitrogen, and stored in aliquots at −80 °C. The same rat βARR1 constructs with mutations (L129A, L129S, L129G, P131A, P133A, E134A, D135A, K138A, C140A, Y249A, C251A, E283A, K284A and R285A) were generated and purified in a similar manner. Recombinant Gα subunits (Gαs, Gαq and Gαi) were purified as GST fusion proteins using glutathione–agarose affinity chromatography as previously described. The heterotrimeric Gs protein complex, composed of Gαs, Gβ1 and Gγ2 subunits, was expressed in Sf9 cells using the baculovirus expression system and purified as previously described. M2R expression, purification and reconstitution into high-density lipoprotein (HDL) particles were performed as previously described. ERK2, SRC, p38α and JNK3 kinases were expressed and purified using previously established protocols[6],[16]. Protein concentrations for each protein were determined by ultraviolet absorption at 280 nm and extinction coefficients estimated using the ExPASy ProtParam tool[67].
(§2) ITC measurements were performed on a MicroCal iTC200 system at 25 °C. Prior to ITC experiments, all proteins (βARR1, βARR2 or βARR1 mutants) were extensively dialysed against 20 mM HEPES (pH 7.4), 100 mM NaCl, and 3 μM TCEP. Protein concentrations were determined by spectrophotometry at 280 nm, using extinction coefficients calculated from each protein sequence via the ProtParam program. The dialysis buffer was used to dilute DMSO stock solutions of β-arrestin small-molecule modulators to their final concentrations for measurements. For each ITC experiment, β-arrestin modulators (Cmpd-5 at 350 μM, Cmpd-46 at 450 μM, and Cmpd-64 at 450 μM) were loaded into the syringe and titrated into the calorimetric cell containing βARR1, βARR1 mutants or βARR2 (at about 30–40 μM, depending on the protein and experiment). Additional ITC experiments were also performed using purified GST-fused Gα subunits (Gαs, Gαq and Gαi; about 30 μM) and Gαiβγ heterotrimer (about 30 μM). Gα subunits were prepared in the same buffer (20 mM HEPES, pH 7.4, 100 mM NaCl, 3 μM TCEP), whereas the Gαiβγ heterotrimer was maintained in buffer supplemented with 0.05% DDM and 10 μM GDP, with matched DMSO carrier conditions. Modulators (300 μM) or corresponding DMSO controls were loaded and titrated as described above. The reference cell was filled with distilled water. In all experiments, the titration sequence typically consisted of an initial 0.4 μl injection, followed by 19 injections of 2 μl each, with a 180-s interval between injections to allow thermal power to return to baseline. […]

βARR1 = biological target: T2, βARR1 (Rattus norvegicus, UniProt P29066); assay: ITC binding to βARR1; details: for Kd: one-site model
T2 construct: βARR1 or βARR2 construct, with their C terminus truncated (at amino acid 393 or 394, respectively); GST (pGEX4T1) (N, cleaved yes); made in house; host or cells: E. coli BL21 (DE3) pLysS
Experimental: as §1, §2

T2 sequence (P29066 1-393): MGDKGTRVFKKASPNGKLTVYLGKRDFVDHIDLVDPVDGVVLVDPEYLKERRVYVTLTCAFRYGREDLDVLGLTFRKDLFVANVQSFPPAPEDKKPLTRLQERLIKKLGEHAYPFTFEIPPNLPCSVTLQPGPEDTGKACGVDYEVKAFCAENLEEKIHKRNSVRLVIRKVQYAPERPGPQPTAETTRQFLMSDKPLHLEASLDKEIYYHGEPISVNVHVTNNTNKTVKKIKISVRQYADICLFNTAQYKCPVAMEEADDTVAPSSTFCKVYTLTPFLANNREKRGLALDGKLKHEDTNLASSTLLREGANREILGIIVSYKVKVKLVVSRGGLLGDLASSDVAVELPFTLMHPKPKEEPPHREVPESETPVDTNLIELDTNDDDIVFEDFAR
T1 sequence (P29067 1-394): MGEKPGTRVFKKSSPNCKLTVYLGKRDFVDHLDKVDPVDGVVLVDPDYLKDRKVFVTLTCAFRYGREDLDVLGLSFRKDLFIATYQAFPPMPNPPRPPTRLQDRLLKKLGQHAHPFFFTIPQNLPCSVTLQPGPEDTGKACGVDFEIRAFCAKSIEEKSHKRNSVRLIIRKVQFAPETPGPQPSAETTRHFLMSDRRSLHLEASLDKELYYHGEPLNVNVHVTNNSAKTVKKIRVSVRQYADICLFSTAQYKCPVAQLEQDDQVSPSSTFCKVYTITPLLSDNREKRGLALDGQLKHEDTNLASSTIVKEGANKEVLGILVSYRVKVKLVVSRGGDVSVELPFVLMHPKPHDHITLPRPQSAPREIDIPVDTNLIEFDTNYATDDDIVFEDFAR

Row | Structure (SMILES) | ANGII-induced Ca2+ response (AUC) relative to DMSO (set to 100%) [1] [%] | stoichiometry N, βARR2 (βARR2) | Kd (βARR2) [nM] | β-arrestin isoform preference (βARR2) | stoichiometry N, βARR1 (βARR1) | ΔH, βARR1 wild type (βARR1; 25 °C) [kcal/mol] | Kd (βARR1; 25 °C)
1 | C=C1C(=O)[C@]23[C@H](O)[C@H]1CC[C@H]2[C@@]12CO[C@]3(O)[C@@H](O)[C@@H]1C(C)(C)CC[C@@H]2O [Cmpd-5, (1S,4aR,5S,6S,6aR,9S,11aS,11bS,14R)-1,5,6,14-tetrahydroxy−4,4-dimethyl-8-methylenedecahydro-1H-6,11b-(epoxymethano)-6a,9-methanocyclohepta[a]naphthalen-7(8H)-one] | 279 | 0.84 | 563 ± 45 | bound both isoforms comparably; also recorded: bound each isoform similarly | 1 | -13.4 | ~400 nM and 362 nM
2 | C=C1C(=O)C2=CC1CCC(=O)C1(C)CCC(OCC)C(C)(C)C1CC2O (stereo not drawn) [Cmpd-46, (Z)-3-ethoxy-6-hydroxy-4,4,13a-trimethyl-9-methylene-1,2,3,4,4a,5,6,9,10,11,12,13a-dodecahydro-7,10-(metheno)benzo[11]annulene-8,13-dione] | 356 | 0.94 | 753 ± 54 | slight βarr2 preference; also recorded: modest βARR2 preference | 1.2 |  | 1340 ± 740 nM
3 | C=C1C(=O)OC2CC3(C)OC3CCC(C)=CC(OC(C)=O)C12 (stereo not drawn) [Cmpd-64, (Z)-4,10a-dimethyl-7-methylene-8-oxo-1a,2,3,6,6a,7,8,9a,10,10a decahydrooxireno[2’,3’:8,9]cyclodeca[1,2-b]furan-6-yl acetate] | 490 | 0.91 | 207 ± 54 |  | 0.73 |  | 1420 ± 200 nM

Reference: article PMC13489962, “Small-molecule modulation of β-arrestins” (Nature, 2026)
